From patent US20220175761A1, “BI-LIGAND DRUG CONJUGATE AND USE THEREOF” (COHERENT BIOPHARMA (SUZHOU), LIMITED, priority 2019, published 2022)

Tests used:
[1] = tested on: CFPAC-1 (human pancreatic cancer cells); assay: Inhibition of cell line proliferation, CCK8; type: cell-based; conditions: CFPAC-1, 68-72 hours, CCK8
Experimental: Experimental operations: PANC-1 and CFPAC-1 cells were prepared in advance, counted, and plated in 96-well cell culture plates at a cell density of 4×10^4 cells/ml (100 μl/well); negative control and blank control wells were set on each plate. After adherent cell culture overnight, the diluted samples to be tested were added at 50 μl/well. The plates were placed in an incubator at 37° C., 5% CO2 and cultured for 68-72 hours. To each well, 15 μl (10% of the liquid volume in a well) of a color developing solution from CCK8 was added; and the plates were incubated at 37° C. for 45-70 minutes and each plate was read at 450 nm on a microplate reader. The data was edited using SoftMax Pro and a 4-P fitting curve was plotted.
(§1) Experimental operations: LNCaP, SK-BR-3, NCI-H226, CFPAC-1 and PANC-1 cells were prepared in advance and counted; with a culture medium (IMDM+10% FBS+1× L-Glutamine+1×P/S), the cells LNCaP, SK-BR-3 and CFPAC-1 were diluted to 4×10^4 cells/ml, NCI-H226 was diluted to 2.0×10^4 cells/ml and PANC-1 was diluted to 3.0×10^4 cells/ml; the diluted cell solution was plated in 96-well plates at 100 μl/well; and negative control and blank control wells were set on each plate. After adherent cell culture overnight, the diluted samples to be tested were added at 50 μl/well. The plates were placed in an incubator at 37° C., 5% CO2 and cultured for 68-72 hours. To each well, 15 μl (10% of the liquid volume in a well) of a color developing solution from CCK8 was added; and the plates were incubated at 37° C. for 45-70 minutes and each plate was read at 450 nm on a microplate reader. The data was edited using SoftMax Pro and a 4-P fitting curve was plotted.
(§2) Experimental Operations: LNCaP, SK-BR-3, MDA-MB-468 and CFPAC-1 cells were prepared in advance and counted; with a culture medium (IMDM+10% FBS+1× L-Glutamine+1×P/S), the cells LNCaP, SK-BR-3, MDA-MB-468 and CFPAC-1 were diluted to 4×10^4 cells/ml; the diluted cell solution was plated in 96-well plates at 100 µl/well; and negative control and blank control wells were set on each plate. After adherent cell culture overnight, the diluted samples to be tested were added at 50 μl/well. The plates were placed in an incubator at 37° C., 5% CO2 and cultured for 68-72 hours. To each well, 15 μl (10% of the liquid volume in a well) of a color developing solution from CCK8 was added; and the plates were incubated at 37° C. for 45-70 minutes and each plate was read at 450 nm on a microplate reader. The data was edited using SoftMax Pro and a 4-P fitting curve was plotted.
as §2, with “Operations: LNCaP, MDA-MB-468, CFPAC-1 and PANC-1” for “Operations: LNCaP, SK-BR-3, MDA-MB-468 and CFPAC-1”, “CFPAC-1 and PANC-1 cells were” for “MDA-MB-468 and CFPAC-1 cells were”, “cells LNCaP, MDA-MB-468 and” for “cells LNCaP, SK-BR-3, MDA-MB-468 and”, “to 4×10^4 cells/ml, and PANC-1 was diluted to 3.0×10^4 cells/ml; the” for “to 4×10^4 cells/ml; the”, “at 100 μl/well; and negative” for “at 100 µl/well; and negative”
Experimental operations: NCI-H226, CFPAC-1 and MDA-MB-468 cells were prepared in advance and counted; MDA-MB-468 and CFPAC-1 cells were plated at a density of 2×10^4 cells/ml (100 μl/well) and NCI-H226 cells were plated at a density of 1×10^4 cells/ml (100 μl/well) in 96-well plates; and negative control and blank control wells were set on each plate. After adherent cell culture overnight, the diluted samples to be tested were added at 50 μl/well. The plates were placed in an incubator at 37° C., 5% CO2 and cultured for 68-72 hours. […]

[2] = tested on: NCI-H226 (human lung cancer cells); assay: Inhibition of cell line proliferation, CCK8; type: cell-based; conditions: NCI-H226, 68-72 hours, CCK8
Experimental: as §1
(§3) Experimental operations: NCI-H226, CFPAC-1 and MDA-MB-468 cells were prepared in advance and counted; MDA-MB-468 and CFPAC-1 cells were plated at a density of 2×10^4 cells/ml (100 μl/well) and NCI-H226 cells were plated at a density of 1×10^4 cells/ml (100 μl/well) in 96-well plates; and negative control and blank control wells were set on each plate. After adherent cell culture overnight, the diluted samples to be tested were added at 50 μl/well. The plates were placed in an incubator at 37° C., 5% CO2 and cultured for 68-72 hours. To each well, 15 μl (10% of the liquid volume in a well) of a color developing solution from CCK8 was added; and the plates were incubated at 37° C. for 45-70 minutes and each plate was read at 450 nm on a microplate reader. The data was edited using SoftMax Pro and a 4-P fitting curve was plotted.

[3] = tested on: MDA-MB-468 (human breast cancer cells); assay: Inhibition of cell line proliferation, CCK8; type: cell-based; conditions: MDA-MB-468, 68-72 hours, CCK8
Experimental: as §2
as §2, with “Operations: LNCaP, MDA-MB-468, CFPAC-1 and PANC-1” for “Operations: LNCaP, SK-BR-3, MDA-MB-468 and CFPAC-1”, “CFPAC-1 and PANC-1 cells were” for “MDA-MB-468 and CFPAC-1 cells were”, “cells LNCaP, MDA-MB-468 and” for “cells LNCaP, SK-BR-3, MDA-MB-468 and”, “to 4×10^4 cells/ml, and PANC-1 was diluted to 3.0×10^4 cells/ml; the” for “to 4×10^4 cells/ml; the”, “at 100 μl/well; and negative” for “at 100 µl/well; and negative”
as §3

[4] = tested on: CALU-3; assay: Tumor growth inhibition of CR19428 in subcutaneous xenograft model (CDX); type: in vivo, BALB/c-nude mice
Experimental: (§4) Experimental scheme: The tumor tissue mass were prepared and subcutaneously inoculated into the anterior right flank of BALB/c-nude mice. When the tumor volume expanded to 80-160 mm^3, a randomized grouping was performed, and a model control group and administration groups were set. The mice were administrated from the first day of grouping, wherein the administration dose was adjusted according to the latest weight measurement. The mice were administrated via tail vein injection at an administration volume of 10 μl/g and twice a week for consecutive 3 weeks. After grouping and administration, the effects of tumor growth and treatment on normal behaviors of animals, specifically including the activity of experimental animals, food intake and drinking status, weight gain or loss status, and other abnormal conditions in eyes, hair, etc., were monitored. After grouping and administration, the weight of mice was measured twice a week to calculate the rate of weight change; at the same time, the long diameter and short diameter of the tumor were measured with a vernier caliper, and the tumor volume, relative tumor proliferation rate, tumor volume inhibition rate and other indicators were calculated. The formula of tumor volume is TV=0.5 a×b^2, wherein a is the long diameter of a tumor and b is the short diameter of a tumor.

[5] = tested on: SCLC-21H; assay: as above; type: in vivo, BALB/c-nude mice
Experimental: as §4

[6] = tested on: SPC-A1; assay: as above; type: in vivo, BALB/c-nude mice; conditions: for TGI: SPC-Al
Experimental: as §4

[7] = tested on: LNCaP human prostate cancer cells; assay: Cell binding and endocytosis by flow cytometry; type: cell-based; conditions: 8 nmol/L, 37° C., 15-90 minutes, compared with DU145 and NCI-H460
Experimental: (§5) Sample information: Cy5-pep-20AK and Cy5-pep-20BK Cell lines: LNCaP human prostate cancer cells, Du145 human prostate cancer cells, SKOV3 human ovarian cancer cells and NCI-H460 human lung cancer cells
(§6) (1) Cell culture: the cells were digested with trypsin, collected and counted, and then the cells were added to several culture flasks containing a complete medium; the culture flasks were placed in an incubator at 37° C., 5% CO2 for culturing the cells, and finally about 5×10^6 cells were collected into a centrifuge tube. […]
(§7) (3) Washing and loading: the working solution was removed by centrifugation at 1000 rpm for 5 minutes, and the cells were washed 3 times with PBS, and an appropriate amount of PBS was added to suspend the cells to 1×10^6 cells/ml; Beckman CytoFLEX flow cytometer was turned on in advance to complete the startup cleaning process; and the cell samples were loaded successively, and the fluorescence of 10,000 living cells was read in the APC channel; all operations were performed avoiding light exposure.
(§8) (4) Data analysis: the absolute MFI (mean fluorescence intensity) of the APC fluorescence of each cell sample and the relative MFI of the relative blank control were obtained, and a data line graph was completed according to the relative MFI.

[8] = tested on: SKOV3 human ovarian cancer cells; assay: Cell binding and endocytosis by flow cytometry; type: cell-based; conditions: 8 nmol/L, 37° C., 15-90 minutes, compared with DU145 and NCI-H460
Experimental: as §5, §6, §7, §8

SMILES | IC50 [1] [µM] | IC50 [2] [µM] | IC50 [3] [µM] | TGI ([4]; CALU-3, 50 mg/kg q2/w * 3) [%] | anti-tumor growth effect (in words) ([4]; CALU-3 CDX) | anti-tumor growth effect (in words) ([5]; SCLC-21H CDX) | TGI ([5]; SCLC-21H, 50 mg/kg q2/w * 3) [%] | anti-tumor growth effect (in words) ([6]; SPC-A1 CDX) | TGI ([6]; 50 mg/kg q2/w * 3) [%] | TGI ([6]; 100 mg/kg q2/w * 3) [%] | binding and endocytosis (fluorescence intensity) [7] | binding and endocytosis (fluorescence intensity) [8]
CC[C@@]1(O)C(=O)OCc2c1cc1n(c2=O)Cc2c-1nc1cc(F)c(C)c3c1c2[C@@H](NC(=O)COCNC(=O)CNC(=O)[C@H](Cc1ccccc1)NC(=O)CNC(=O)CNC(=O)CCCCCN1C(=O)CC(SC[C@H](NC(=O)[C@H](CCCCN)NC(=O)[C@H](CC(=O)O)NC(=O)[C@H](CC(=O)O)NC(=O)Cc2ccc(CNC(=O)NCCCC[C@H](NC(=O)N[C@@H](CCC(=O)O)C(=O)O)C(=O)O)cc2)C(=O)N[C@@H](CCCCNC(=O)CC[C@H](NC(=O)c2ccc(NCc4cnc5[nH]c(N)nc(=O)c5n4)cc2)C(=O)O)C(N)=O)C1=O)CC3 (stereo partly drawn) [CR19428] | 0.906 | 1.62 | 1.07 | 51 | obvious anti-tumor growth effect | obvious anti-tumor growth effect | 66 | obvious anti-tumor growth effect | 75 | 91 | – | –
CC1(C)C(/C=C/C=C/C=C2\N(CCCCCC(=O)NCCCCC(NC(=O)[C@H](CCCCN)NC(=O)[C@H](CC(=O)O)NC(=O)[C@H](CC(=O)O)NC(=O)Cc3ccc(CNC(=O)NCCCC[C@H](NC(=O)N[C@@H](CCC(=O)O)C(=O)O)C(=O)O)cc3)C(N)=O)c3ccc(S(=O)(=O)[O-])cc3C2(C)C)=[N+](CCCS(=O)(=O)O)c2ccc(S(=O)(=O)O)cc21 (stereo partly drawn) [Cy5-pep-20AK] | – | – | – | – | – | – | – | – | – | – | high level of binding and endocytosis | moderate level of binding and endocytosis
